Source: PubChem BioAssay (NCI)
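96-well plates; 48 h exposure; 5 concentrations. Endpoints by linear interpolation between flanking doses. Not reached: highest tested concentration assigned. Definition used: TGI = concentration required for complete inhibition of growth.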

Key:
Assay in all cases: inhibition of tumour cell growth, NCI panel, 48 h
A498 renal = test system: A498 renal
OVCAR-4 ovarian = test system: OVCAR-4 ovarian
MALME-3M melanoma = test system: MALME-3M melanoma
HT29 colon = test system: HT29 colon
SR leukemia = test system: SR leukemia
OVCAR-5 ovarian = test system: OVCAR-5 ovarian
TK-10 renal = test system: TK-10 renal
CCRF-CEM leukemia = test system: CCRF-CEM leukemia
SNB-75 CNS = test system: SNB-75 CNS
ACHN renal = test system: ACHN renal
KM12 colon = test system: KM12 colon
CAKI-1 renal = test system: CAKI-1 renal
SN12C renal = test system: SN12C renal
MOLT-4 leukemia = test system: MOLT-4 leukemia
LXFL 529 NSCLC = test system: LXFL 529 NSCLC
786-0 renal = test system: 786-0 renal
HOP-62 NSCLC = test system: HOP-62 NSCLC
LOX IMVI melanoma = test system: LOX IMVI melanoma
SF-295 CNS = test system: SF-295 CNS
RPMI-8226 leukemia = test system: RPMI-8226 leukemia
SNB-19 CNS = test system: SNB-19 CNS
SNB-78 CNS = test system: SNB-78 CNS
A549 NSCLC = test system: A549 NSCLC
K-562 leukemia = test system: K-562 leukemia
OVCAR-8 ovarian = test system: OVCAR-8 ovarian
DMS 114 small cell lung = test system: DMS 114 small cell lung
OVCAR-3 ovarian = test system: OVCAR-3 ovarian
SK-MEL-2 melanoma = test system: SK-MEL-2 melanoma
SK-MEL-28 melanoma = test system: SK-MEL-28 melanoma
UO-31 renal = test system: UO-31 renal
SK-MEL-5 melanoma = test system: SK-MEL-5 melanoma
NCI-H23 lung = test system: NCI-H23 lung
UACC-62 melanoma = test system: UACC-62 melanoma
HCT-15 colon = test system: HCT-15 colon
UACC-257 melanoma = test system: UACC-257 melanoma
SF-539 CNS = test system: SF-539 CNS
DLD-1 colon = test system: DLD-1 colon
HCC-2998 colon = test system: HCC-2998 colon
M19-MEL melanoma = test system: M19-MEL melanoma
EKVX NSCLC = test system: EKVX NSCLC
HCT-116 colon = test system: HCT-116 colon
IGROV1 ovarian = test system: IGROV1 ovarian
HL-60(TB) leukemia = test system: HL-60(TB) leukemia
KM20L2 colon = test system: KM20L2 colon
RXF 393 renal = test system: RXF 393 renal
NCI-H226 lung = test system: NCI-H226 lung
SK-OV-3 ovarian = test system: SK-OV-3 ovarian
M14 melanoma = test system: M14 melanoma
NCI-H460 lung = test system: NCI-H460 lung
SW-620 colon = test system: SW-620 colon
NCI-H522 lung = test system: NCI-H522 lung
COLO 205 colon = test system: COLO 205 colon
SF-268 CNS = test system: SF-268 CNS
U251 CNS = test system: U251 CNS
HOP-92 NSCLC = test system: HOP-92 NSCLC
DMS 273 small cell lung = test system: DMS 273 small cell lung

O=C(N/C(=C\c1cc(Cl)ccc1Cl)c1nc2ccc(Cl)cc2[nH]1)c1ccccc1
TGI (A498 renal): 41.9 µM
TGI (OVCAR-4 ovarian): 68.6 µM
TGI (MALME-3M melanoma): 35.8 µM
TGI (HT29 colon): 30.9 µM
TGI (SR leukemia): 25.5 µM
TGI (OVCAR-5 ovarian): 60.1 µM
TGI (TK-10 renal): 10.9 µM
TGI (CCRF-CEM leukemia): 51.4 µM
TGI (SNB-75 CNS): 35.2 µM
TGI (ACHN renal): 78.1 µM
TGI (KM12 colon): 29.4 µM
TGI (CAKI-1 renal): 66.4 µM
TGI (SN12C renal): 34 µM
TGI (MOLT-4 leukemia): 37.2 µM
TGI (LXFL 529 NSCLC): 28.1 µM
TGI (786-0 renal): 71.9 µM
TGI (HOP-62 NSCLC): 32.3 µM
TGI (LOX IMVI melanoma): 26.4 µM
TGI (SF-295 CNS): 31.3 µM
TGI (RPMI-8226 leukemia): 40.4 µM
TGI (SNB-19 CNS): 60.1 µM
TGI (SNB-78 CNS): 54.8 µM
TGI (A549 NSCLC): 38.1 µM
TGI (K-562 leukemia): 41.1 µM
TGI (OVCAR-8 ovarian): 31.6 µM
TGI (DMS 114 small cell lung): 29.8 µM
TGI (OVCAR-3 ovarian): 35.1 µM
TGI (SK-MEL-2 melanoma): 32.4 µM
TGI (SK-MEL-28 melanoma): 32.4 µM
TGI (UO-31 renal): 24.4 µM
TGI (SK-MEL-5 melanoma): 25.9 µM
TGI (NCI-H23 lung): 28.7 µM
TGI (UACC-62 melanoma): 24.8 µM
TGI (HCT-15 colon): 31 µM
TGI (UACC-257 melanoma): 28.3 µM
TGI (SF-539 CNS): 35.1 µM
TGI (DLD-1 colon): 26.7 µM
TGI (HCC-2998 colon): 32.4 µM
TGI (M19-MEL melanoma): 30 µM
TGI (EKVX NSCLC): 50.6 µM
TGI (HCT-116 colon): 22.3 µM
TGI (IGROV1 ovarian): 29.8 µM
TGI (HL-60(TB) leukemia): 37.1 µM
TGI (KM20L2 colon): 32.2 µM
TGI (RXF 393 renal): 29.2 µM
TGI (NCI-H226 lung): 42.4 µM
TGI (SK-OV-3 ovarian): 51.8 µM
TGI (M14 melanoma): 31.1 µM
TGI (NCI-H460 lung): 30.5 µM
TGI (SW-620 colon): 31.1 µM
TGI (NCI-H522 lung): 25 µM
TGI (COLO 205 colon): 33.6 µM
TGI (SF-268 CNS): 28.1 µM
TGI (U251 CNS): 30.1 µM
TGI (HOP-92 NSCLC): 24.4 µM

C=CCC1(CC)C(=O)NC(=O)NC1=O
TGI (MALME-3M melanoma): > 100 µM
TGI (SR leukemia): > 100 µM
TGI (TK-10 renal): > 100 µM
TGI (DMS 273 small cell lung): > 100 µM
TGI (CCRF-CEM leukemia): > 100 µM
TGI (SNB-75 CNS): > 100 µM
TGI (ACHN renal): > 100 µM
TGI (KM12 colon): > 100 µM
TGI (SN12C renal): > 100 µM
TGI (MOLT-4 leukemia): > 100 µM
TGI (LXFL 529 NSCLC): > 100 µM
TGI (786-0 renal): > 100 µM
TGI (HOP-62 NSCLC): > 100 µM
TGI (LOX IMVI melanoma): > 100 µM
TGI (RPMI-8226 leukemia): > 100 µM
TGI (SNB-19 CNS): > 100 µM
TGI (SNB-78 CNS): > 100 µM
TGI (A549 NSCLC): > 100 µM
TGI (K-562 leukemia): > 100 µM
TGI (OVCAR-8 ovarian): > 100 µM
TGI (OVCAR-3 ovarian): > 100 µM
TGI (SK-MEL-28 melanoma): > 100 µM
TGI (UO-31 renal): > 100 µM
TGI (NCI-H23 lung): > 100 µM
TGI (UACC-62 melanoma): > 100 µM
TGI (HCT-15 colon): > 100 µM
TGI (UACC-257 melanoma): > 100 µM
TGI (SF-539 CNS): > 100 µM
TGI (HCC-2998 colon): > 100 µM
TGI (M19-MEL melanoma): > 100 µM
TGI (EKVX NSCLC): > 100 µM
TGI (HCT-116 colon): > 100 µM
TGI (IGROV1 ovarian): > 100 µM
TGI (HL-60(TB) leukemia): > 100 µM
TGI (KM20L2 colon): > 100 µM
TGI (RXF 393 renal): > 100 µM
TGI (NCI-H226 lung): > 100 µM
TGI (SK-OV-3 ovarian): > 100 µM
TGI (M14 melanoma): > 100 µM
TGI (NCI-H460 lung): > 100 µM
TGI (SW-620 colon): > 100 µM
TGI (NCI-H522 lung): > 100 µM
TGI (COLO 205 colon): > 100 µM
TGI (SF-268 CNS): > 100 µM
TGI (U251 CNS): > 100 µM
